From article PMC5706701, “Development of a homogenous high-throughput assay for inositol hexakisphosphate kinase 1 activity” (PLoS ONE, 2017)
Counter-ions that a name gives are not always drawn. Like-named read-outs stand apart in the source and are kept apart here.

Target: T1, Human IP6K1 (Homo sapiens, UniProt Q92551)
T1 construct: GST (N, cleaved yes); made in house; host or cells: C43 E. coli, pGEX-6P-2
Assay: IP6K1 high-throughput screen of the Sigma LOPAC (ADP-Glo Max, single point);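 also: final compound concentration 10µM in 5% DMSO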
Assay type: biochemical

[1] = LOPAC single-point screen, ADP-Glo Max luminescence raw signal per well
[2] = LOPAC single-point screen, Z-score relative to plate average and StDev
[3] = LOPAC single-point screen, ADP-Glo Max raw signal per well
[4] = LOPAC single-point screen, Z-score from raw signal with plate average and StDev
[5] = Sigma LOPAC single-point screen, ADP-Glo Max raw signal per well
[6] = Sigma LOPAC single-point screen, Z-score from plate average and StDev
[7] = LOPAC single-point screen, Z-score against plate average and StDev
[8] = LOPAC single-point screen, Z-score from plate average and StDev

T1 sequence (Q92551 whole entry): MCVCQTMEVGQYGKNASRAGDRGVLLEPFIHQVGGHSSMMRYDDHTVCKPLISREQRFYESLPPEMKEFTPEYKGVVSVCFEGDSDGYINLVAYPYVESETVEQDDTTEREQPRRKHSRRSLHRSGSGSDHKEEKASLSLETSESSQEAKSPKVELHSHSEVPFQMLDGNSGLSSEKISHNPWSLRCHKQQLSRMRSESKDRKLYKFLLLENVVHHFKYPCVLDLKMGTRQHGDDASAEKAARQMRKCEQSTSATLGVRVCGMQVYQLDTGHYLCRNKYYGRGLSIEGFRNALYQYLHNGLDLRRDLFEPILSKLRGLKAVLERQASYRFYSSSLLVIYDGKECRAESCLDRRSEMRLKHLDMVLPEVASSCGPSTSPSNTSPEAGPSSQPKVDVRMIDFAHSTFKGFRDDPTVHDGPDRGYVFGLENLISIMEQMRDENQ

For `O=C(Nc1cccc(C(=O)Nc2ccc(S(=O)(=O)O)c3cc(S(=O)(=O)O)cc(S(=O)(=O)O)c23)c1)Nc1cccc(C(=O)Nc2ccc(S(=O)(=O)O)c3cc(S(=O)(=O)O)cc(S(=O)(=O)O)c23)c1` [NF 023], the “Raw Signal” value [1] was 39481 and the Z-score [2] was -2.506.
`O=C(O)CP(=O)(O)O` [Phosphonoacetic acid] was tested, and the “Raw Signal” value [3] was 54653 and the Z-score [4] was -0.2663.
For `N[C@H](CCCCCP(=O)(O)O)C(=O)O` [D(-)-2-Amino-7-phosphonoheptanoic acid], the “Raw Signal” value [5] was 62778 and the Z-score [6] was 0.8568.
`Nc1ncnc2c1ncn2[C@@H]1O[C@H](CO)[C@@H](O)[C@H]1O` [Adenosine] was tested, and the “Raw Signal” value [3] was 56689 and the Z-score [4] was -0.2156.
For `CC(=O)[C@]1(O)Cc2c(O)c3c(c(O)c2[C@@H](O[C@H]2C[C@H](N)[C@H](O)[C@H](C)O2)C1)C(=O)c1ccccc1C3=O` [Idarubicin], the “Raw Signal” value [3] was 55218 and the Z-score [7] was 0.01035.
For `O=C[C@H](Cl)[C@@H](O)[C@H](O)[C@H](O)CO` [2-Chloro-2-deoxy-D-glucose], the “Raw Signal” value [5] was 57775 and the Z-score [6] was 0.5297.
For `CCn1c(=O)c2nc(-c3ccccc3)[nH]c2n(CC)c1=O` [1,3-Diethyl-8-phenylxanthine], the “Raw Signal” value [3] was 56931 and the Z-score [4] was -0.173.
`CNC(=O)OCC[N+](C)(C)C` [Methylcarbamylcholine chloride] was tested, and the “Raw Signal” value [5] was 60360 and the Z-score [6] was 1.003.
With `NC(Cc1cccc(-c2ccccc2CP(=O)(O)O)c1)C(=O)O` (stereo not drawn) the “Raw Signal” value [3] was 56365 and the Z-score [7] was 0.06629.
In the case of `Nc1ccn([C@H]2CC[C@@H](CO)O2)c(=O)n1` [2 ,3 -dideoxycytidine], the “Raw Signal” value [1] was 50390 and the Z-score [2] was -0.9702.
`NCCc1c[nH]c2ccc(O)cc12` [Serotonin hydrochloride] was tested, and the “Raw Signal” value [5] was 60327 and the Z-score [6] was 1.048.
In the case of `CC(C)(C)NCC(O)c1ccc(O)c(CO)c1` (stereo not drawn) [Salbutamol], the Z-score [4] was -0.2712.
In the case of `COc1ccccc1N1CCN(CCN2C(=O)CC3(CCCC3)CC2=O)CC1.Cl.Cl` [BMY 7378 dihydrochloride], the “Raw Signal” value [1] was 52642 and the Z-score [2] was -0.9284.
For `COc1ccc(/C=C/C(=O)Nc2ccccc2C(=O)O)cc1OC` [Tranilast], the “Raw Signal” value [1] was 68948 and the Z-score [8] was 2.511.
In the case of `Nc1nc(SCc2ccc([N+](=O)[O-])cc2)c2ncn([C@@H]3O[C@H](CO)[C@@H](O)[C@H]3O)c2n1` [S-(4-Nitrobenzyl)-6-thioguanosine], the “Raw Signal” value [5] was 63053 and the Z-score [6] was 0.9053.
For `O=[N+]([O-])c1ccc(CSc2ncnc3c2ncn3[C@@H]2O[C@H](CO)[C@@H](O)[C@H]2O)cc1` [S-(4-Nitrobenzyl)-6-thioinosine], the “Raw Signal” value [1] was 50827 and the Z-score [2] was -0.5993.
`FC(F)(F)c1ccccc1-n1ccnc1` [1-[2-(Trifluoromethyl)phenyl]imidazole] was tested, and the “Raw Signal” value [5] was 60208 and the Z-score [6] was 0.8129.
With `Br.C[N+](C)(C)CCCCCNCC12CC3CC(CC(C3)C1)C2.[Br-]` [IEM-1460] the “Raw Signal” value [3] was 53178 and the Z-score [4] was -0.404.
`CC[C@@H]1C(=O)OC[C@@H]1Cc1cncn1C.Cl` [(+)-Pilocarpine hydrochloride] was tested, and the “Raw Signal” value [5] was 57845 and the Z-score [6] was 0.5799.
With `CS(=O)(=O)O.Cc1c(C(=O)c2cccc3ccccc23)c2cccc3c2n1[C@H](CN1CCOCC1)CO3` [(R)-(+)-WIN 55,212-2 mesylate] the “Raw Signal” value [5] was 62593 and the Z-score [6] was 1.276.
For `Br.CCCN1CCC2c3cc(O)ccc3CCC21` (racemic) [cis-(±)-8-OH-PBZI hydrobromide], the “Raw Signal” value [3] was 53901 and the Z-score [7] was -0.08275.
For `CCCn1c(C)c(C(=O)c2cccc3ccccc23)c2ccccc21` [JWH-015], the “Raw Signal” value [3] was 54462 and the Z-score [7] was 0.01151.
`CC(=O)N[C@@H](CS)C(=O)O` [N-Acetyl-L-Cysteine] was tested, and the “Raw Signal” value [5] was 65323 and the Z-score [6] was 1.305.
`Cc1ccc(C(=O)Nc2ccc(S(=O)(=O)O)c3cc(S(=O)(=O)O)cc(S(=O)(=O)O)c23)cc1NC(=O)c1cccc(NC(=O)Nc2cccc(C(=O)Nc3cc(C(=O)Nc4ccc(S(=O)(=O)O)c5cc(S(=O)(=O)O)cc(S(=O)(=O)O)c45)ccc3C)c2)c1` [Suramin hexasodium] was tested, and the “Raw Signal” value [1] was 10286 and the Z-score [2] was -8.886.
In the case of `CCCCCCCCCCCCC/C=C/[C@@H](O)[C@@H](N)CO` [Sphingosine], the “Raw Signal” value [1] was 64012 and the Z-score [8] was 1.552.
With `CCN1CCC[C@H]1CNC(=O)c1c(O)c(Cl)cc(Cl)c1OC.O=C(O)C(O)C(O)C(=O)O` (racemic) [S(+)-Raclopride L-tartrate] the “Raw Signal” value [5] was 59305 and the Z-score [6] was 0.6375.
In the case of `NC(CCCCCP(=O)(O)O)C(=O)O` (racemic) [(±)-2-Amino-7-phosphonoheptanoic acid], the “Raw Signal” value was 66212 and the Z-score was 1.462.
With `Nc1nc(N)c2nc(CNc3ccc(C(=O)N[C@@H](CCC(=O)O)C(=O)O)cc3)cnc2n1` [Aminopterin] the “Raw Signal” value [3] was 55514 and the Z-score [4] was -0.4225.
For `Cc1ccc(=O)n(-c2ccccc2)c1` [Pirfenidone], the “Raw Signal” value [3] was 52089 and the Z-score [4] was -0.3872.
In the case of `CCNC(=O)N1CCN(CCCC(c2ccc(F)cc2)c2ccc(F)cc2)CC1` [Amperozide hydrochloride], the “Raw Signal” value [1] was 52806 and the Z-score [2] was -0.8995.
`O=C(O)c1cc(O)c2ccc(Cl)cc2n1` [7-Chlorokynurenic acid] was tested, and the “Raw Signal” value [3] was 53866 and the Z-score [4] was -0.2642.
With `Br.Br.N=C(N)SCCN` the “Raw Signal” value [3] was 59514 and the Z-score [7] was 0.282.
`C[C@]12CC[C@@H]3c4ccc(O)cc4CC[C@H]3[C@@H]1CCC2=O` [Estrone] was tested, and the “Raw Signal” value [3] was 53604 and the Z-score [4] was -0.3174.
For `Cl.Cl.Cl.Ic1ccc(N2CCN(Cc3c[nH]c4ncccc34)CC2)cc1` [L-750,667 trihydrochloride], the “Raw Signal” value [5] was 61468 and the Z-score [6] was 1.1887.
In the case of `N[C@]1(C(=O)O)CC[C@H](C(=O)O)C1` (racemic) [trans-(±)-ACPD], the “Raw Signal” value [3] was 56973 and the Z-score [4] was -0.1656.
In the case of `CCCCS(=N)(=O)CCC(N)C(=O)O` (racemic) [DL-Buthionine-[S,R]-sulfoximine], the “Raw Signal” value [1] was 66724 and the Z-score [8] was 1.552.
In the case of `O=C(O)CN(CCOCCOCCN(CC(=O)O)CC(=O)O)CC(=O)O`, the “Raw Signal” value was 55582 and the Z-score was 0.08428.
With `CC(C)(C)C1(O)CCN2CC3c4ccccc4CCc4cccc(c43)C2C1.Cl` (racemic) [(±)-Butaclamol hydrochloride] the “Raw Signal” value [5] was 57693 and the Z-score [6] was 0.513.
`C[C@H](Cc1ccc(OCC(=O)[O-])cc1)NC[C@H](O)c1cccc(Cl)c1.[Na+]` [BRL 37344 sodium] was tested, and the “Raw Signal” value [1] was 53982 and the Z-score [2] was -0.6924.
`NS(=O)(=O)c1cc2c(cc1Cl)NC(C1CC3C=CC1C3)NS2(=O)=O` (stereo not drawn) [Cyclothiazide] was tested, and the “Raw Signal” value [5] was 61194 and the Z-score [6] was 1.224.
`NCCCS(=O)(=O)O.[Na]` [3-Amino-1-propanesulfonic acid sodium] was tested, and the “Raw Signal” value [1] was 52858 and the Z-score [2] was -0.8903.
With `Nc1nc(Nc2ccccc2)nc2c1ncn2[C@@H]1O[C@H](CO)[C@@H](O)[C@H]1O` [2-Phenylaminoadenosine] the “Raw Signal” value [3] was 55292 and the Z-score [4] was -0.1422.
With `CCCN(CCC)C1Cc2cc(OC)c(OC)cc2C1.O=C(O)/C=C\C(=O)O` [U-99194A maleate] the “Raw Signal” value [3] was 57664 and the Z-score [7] was 0.3187.
In the case of `N=C(N)NC(=O)Cc1c(Cl)cccc1Cl` [Guanfacine hydrochloride], the “Raw Signal” value [3] was 54831 and the Z-score [7] was -0.06825.
